Results: patent US20150005347A1, “NITROGEN-CONTAINING HETEROCYCLIC DERIVATIVE HAVING 2-IMINO GROUP AND PEST CONTROL AGENT INCLUDING THE SAME” (MEIJI SEIKA PHARMA CO., LTD., priority 2012, published 2015)

Key:
Type in all cases: in vivo
[1] = system: susceptible populations of Sogatella furcifera; test: Soil irrigation test, susceptible populations of Sogatella furcifera
Protocol: (§1) A rice seedling in pot culture was subjected to soil irrigation treatment with a drug solution of the compound of the present invention at a predetermined concentration, which had been prepared so as to be a 10% acetone water. […] Thereafter, the larvae were left to stand in a thermostatic chamber (16 hours of light period-8 hours of dark period) at 25° C. […] The test was performed in duplicate.
(§2) Mortality of larvae(%)={number of dead larvae/(number of survived larvae+number of dead larvae)}×100
Further, for comparison, the test against a populations of Sogatella furcifera which is highly susceptible to fipronil was performed by the same method as described above, and the results thereof are shown in Table 44.
(§3) In addition, for the origin of test pests, bugs collected within the city of Odawara in 2010 as the drug resistant Sogatella furcifera, and bugs collected within the city of Chigasaki in 1970 and then successively reared indoors for a long time as the susceptible populations of Sogatella furcifera were used.

[2] = system: Sogatella furcifera exhibiting drug resistance to fipronil; test: Soil irrigation test, Sogatella furcifera exhibiting drug resistance to fipronil; conditions: drug resistant populations
Protocol: Test Example 19 Pest Control Test of Sogatella furcifera
as §1, §2, §3

[3] = system: Laodelphax striatella exhibiting drug resistance to fipronil; test: Soil irrigation test, Laodelphax striatella exhibiting drug resistance to fipronil; conditions: drug resistant populations
Protocol: Test Example 20 Pest Control Test of Laodelphax striatella
as §1, §2
(§4) In addition, for the origin of test pests, bugs collected within the Kumamoto prefecture in 2006 as the drug resistant Laodelphax striatella, and bugs successively reared indoors for a long time as the susceptible populations of Laodelphax striatella were used.

[4] = system: susceptible populations of Laodelphax striatella; test: Soil irrigation test, susceptible populations of Laodelphax striatella
Protocol: as §1, §2
Further, for comparison, the test against a populations of Laodelphax striatella which is highly susceptible to fipronil was performed by the same method as described above, and the results thereof are shown in Table 45.
as §4

`N#Cc1nn(-c2c(Cl)cc(C(F)(F)F)cc2Cl)c(N)c1[S+]([O-])C(F)(F)F` (stereo not drawn) [Fipronil] was tested, and the “Insecticidal effects against Sogatella furcifera (mortality of larvae %), Susceptible populations six days after the treatment” value ([1]; Rate 0.005 mg/pot) was 100%, the “Insecticidal effects against Sogatella furcifera (mortality of larvae %), Susceptible populations six days after the treatment” value ([1]; Rate 0.01 mg/pot) was 100% and the “Insecticidal effects against Sogatella furcifera (mortality of larvae %), Susceptible populations six days after the treatment” value ([1]; Rate 0.01 mg/pot as printed in the last line (below 0.005)) was 78%. For the same molecule, the “Insecticidal effects against Sogatella furcifera (mortality of larvae %), Drug resistant populations six days after the treatment” value ([2]; Rate 0.01 mg/pot) was 40%, the “Insecticidal effects against Sogatella furcifera (mortality of larvae %), Drug resistant populations six days after the treatment” value ([2]; Rate 0.05 mg/pot) was 90% and the “Insecticidal effects against Laodelphax striatella (mortality of larvae %), Drug resistant populations six days after the treatment” value ([3]; Rate 0.02 mg/pot) was 76%. For the same molecule, the “Insecticidal effects against Laodelphax striatella (mortality of larvae %), Drug resistant populations six days after the treatment” value ([3]; Rate 0.05 mg/pot) was 90%, the “Insecticidal effects against Laodelphax striatella (mortality of larvae %), Susceptible populations six days after the treatment” value ([4]; Rate 0.005 mg/pot) was 89% and the “Insecticidal effects against Laodelphax striatella (mortality of larvae %), Susceptible populations six days after the treatment” value ([4]; Rate 0.01 mg/pot) was 100%.
